The record followed here is patent publication US9758537B2 (Achillion Pharmaceuticals, Inc., priority 2014, dated 2017).

As usually defined, the IC50 is the concentration needed to halve the response being measured. A high value points to a need for much substance.

Each structure is given as a SMILES string. Where only a bound is given, the exact number is not on record here.

Sequence of Human factor D (P00746 26-253): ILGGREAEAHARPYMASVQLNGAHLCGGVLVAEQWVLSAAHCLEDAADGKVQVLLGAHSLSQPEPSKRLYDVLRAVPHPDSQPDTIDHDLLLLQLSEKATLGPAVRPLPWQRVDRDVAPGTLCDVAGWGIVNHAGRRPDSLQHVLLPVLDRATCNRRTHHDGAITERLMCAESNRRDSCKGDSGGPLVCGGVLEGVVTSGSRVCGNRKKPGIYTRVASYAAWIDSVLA

The test concerns the target Human factor D (Homo sapiens (Human), UniProt P00746). As to the kind of experiment: Human Factor D Assay. Format: biochemical. The following applies: human factor D 80 nM, substrate Z-L-Lys-SBzl, DTNB, OD405. On the procedure: Human factor D (purified from human serum, Complement Technology, Inc.) at 80 nM final concentration is incubated with test compound at various concentrations for 5 minutes at room temperature in 50 mM Tris, 1M NaCl, pH 7.5. A synthetic substrate Z-L-Lys-SBzl and DTNB (Ellman's reagent) are added to final concentrations of 10 μM each. The increase in color is recorded at OD405 nm in a microplate in kinetic mode over 30 minutes with 30 second time points in a […]. IC50 values are calculated by non-linear regression from the percentage of inhibition of complement factor D activity as a function of test compound concentration.
Regarding `O=C1CCCc2c1c1ccccc1n2CC(=O)N1C[C@H](F)C[C@H]1C(=O)NCc1cccc(Cl)c1F` [Compound 37, (2S,4R)-N-(3-chloro-2-fluorobenzyl)-4-fluoro-1-(2-(4-oxo-3,4-dihydro-1H-carbazol-9(2H)-yl)acetyl)pyrrolidine-2-carboxamide], the IC50 is below 1000 nM. With `CC(C)(C)OC(=O)N[C@@H](Cc1c[nH]c2ccccc12)C(=O)N1C[C@H](F)C[C@H]1C(=O)NCc1cccc(Cl)c1F` [Compound 38, tert-butyl (S)-1-((2S,4R)-2-(3-chloro-2-fluorobenzylcarbamoyl)-4-fluoropyrrolidin-1-yl)-3-(1H-indol-3-yl)-1-oxopropan-2-ylcarbamate] the figure was above 10000 nM; with `N[C@@H](Cc1c[nH]c2ccccc12)C(=O)N1C[C@H](F)C[C@H]1C(=O)NCc1cccc(Cl)c1F` [Compound 39, (2S,4R)-1-((S)-2-amino-3-(1H-indol-3-yl)propanoyl)-N-(3-chloro-2-fluorobenzyl)-4-fluoropyrrolidine-2-carboxamide], above 10000 nM.

For the compound `O=C(NCc1cccc(Cl)c1F)[C@@H]1C[C@@H](F)CN1C(=O)Cn1cc([N+](=O)[O-])c2ccccc21` [Compound 46, (2S,4R)-N-(3-chloro-2-fluorobenzyl)-4-fluoro-1-(2-(3-nitro-1H-indol-1-yl)acetyl)pyrrolidine-2-carboxamide], the IC50 is below 1000 nM. In the case of `CC(=O)Nc1cn(CC(=O)N2C[C@H](F)C[C@H]2C(=O)NCc2cccc(Cl)c2F)c2ccccc12` [Compound 47, (2S,4R)-1-(2-(3-acetamido-1H-indol-1-yl)acetyl)-N-(3-chloro-2-fluorobenzyl)-4-fluoropyrrolidine-2-carboxamide], the IC50 is below 1000 nM. For `CC(=O)c1cn(CC(=O)N2C[C@H](F)C[C@H]2C(=O)Nc2cccc(SC(F)(F)F)c2)c2cc(O)ccc12` [Compound 48, (2S,4R)-1-(2-(3-acetyl-6-hydroxy-1H-indol-1-yl)acetyl)-4-fluoro-N-(3-(trifluoromethylthio)phenyl)pyrrolidine-2-carboxamide] the value was below 1000 nM; for `O=C(NCc1cccc(Cl)c1F)[C@@H]1C[C@@H](F)CN1C(=O)c1csc(-c2cccnc2)n1` [Compound 50, (2S,4R)-N-(3-chloro-2-fluorobenzyl)-4-fluoro-1-(2-(pyridin-3-yl)thiazole-4-carbonyl)pyrrolidine-2-carboxamide], above 10000 nM. For `CC(=O)Nc1ccc(C(=O)N2C[C@H](F)C[C@H]2C(=O)NCc2cccc(Cl)c2F)cn1` [Compound 51, (2S,4R)-1-(6-acetamidonicotinoyl)-N-(3-chloro-2-fluorobenzyl)-4-fluoropyrrolidine-2-carboxamide], the IC50 is above 10000 nM. Regarding `O=C(NCc1cccc(Cl)c1F)[C@@H]1C[C@@H](F)CN1C(=O)Cn1nc(I)c2ccncc21` [Compound 52, (2S,4R)-N-(3-chloro-2-fluorobenzyl)-4-fluoro-1-(2-(3-iodo-1H-pyrazolo[3,4-c]pyridin-1-yl)acetyl)pyrrolidine-2-carboxamide], the IC50 is below 1000 nM. With `O=C(NCc1cccc(Cl)c1F)[C@@H]1C[C@@H](F)CN1C(=O)Nc1cn(C(=O)C2CC2)c2ccccc12` [Compound 54, (2S,4R)-N2-(3-chloro-2-fluorobenzyl)-N1-(1-(cyclopropanecarbonyl)-1H-indol-3-yl)-4-fluoropyrrolidine-1,2-dicarboxamide] the figure was below 1000 nM; with `CC(=O)c1cn(C(C)C(=O)N2C[C@H](F)C[C@H]2C(=O)NCc2cccc(Cl)c2F)c2ccccc12` (some centres unmarked) [Compound 55], above 10000 nM. `CC(=O)c1cn(C(C)(C)C(=O)N2C[C@H](F)C[C@H]2C(=O)NCc2cccc(Cl)c2F)c2ccccc12` [Compound 56]: the IC50 is above 10000 nM. For `CCOP(=O)(OCC)c1cc(Cl)c(F)c(CNC(=O)[C@@H]2C[C@@H](F)CN2C(=O)Cn2cc(C(C)=O)c3ccccc32)c1` [Compound 61] the value was below 1000 nM; for `CC(=O)c1cn(CC(=O)N2[C@@H]3CCC[C@@H]3C[C@H]2C(=O)NCc2cccc(Cl)c2F)c2cc(O)ccc12` [Compound 62], below 1000 nM.

With `CC(=O)c1cn(CC(=O)N2C[C@H](F)C[C@H]2C(=O)NCc2cc(P(=O)(O)O)cc(Cl)c2F)c2ccccc12` [Compound 63, 3-(((2S,4R)-1-(2-(3-acetyl-1H-indol-1-yl)acetyl)-4-fluoropyrrolidine-2-carboxamido)methyl)-5-chloro-4-fluorophenylphosphonic acid], the half-maximal inhibitory concentration (IC50) was below 1000 nM. As for `O=C(NCc1cccc(Cl)c1F)[C@@H]1C[C@@H](F)CN1C(=O)CN1C=NS(=O)(=O)c2ccccc21` [Compound 65, (2S,4R)-N-(3-chloro-2-fluorobenzyl)-1-(2-(1,1-dioxido-4H-benzo[e][1,2,4]thiadiazin-4-yl)acetyl)-4-fluoropyrrolidine-2-carboxamide], the IC50 was above 10000 nM. For `CC(C)(C)OC(=O)N1CCc2c(n(CC(=O)N3C[C@H](F)C[C@H]3C(=O)NCc3cccc(Cl)c3F)c3ccccc23)C1` [Compound 67, tert-butyl 9-(2-((2S,4R)-2-(3-chloro-2-fluorobenzylcarbamoyl)-4-fluoropyrrolidin-1-yl)-2-oxoethyl)-3,4-dihydro-1H-pyrido[3,4-b]indole-2(9H)-carboxylate] the value was above 10000 nM. For `O=C(NCc1cccc(Cl)c1F)[C@@H]1C[C@@H](F)CN1C(=O)Cn1c2c(c3ccccc31)CCNC2` [Compound 68, (2S,4R)-N-(3-chloro-2-fluorobenzyl)-1-(2-(3,4-dihydro-1H-pyrido[3,4-b]indol-9(2H)-yl)acetyl)-4-fluoropyrrolidine-2-carboxamide] the value was above 10000 nM; for `CCOC(=O)CC(=O)N1CCc2c(n(CC(=O)N3C[C@H](F)C[C@H]3C(=O)NCc3cccc(Cl)c3F)c3ccccc23)C1` [Compound 70, ethyl 3-(9-(2-((2S,4R)-2-(3-chloro-2-fluorobenzylcarbamoyl)-4-fluoropyrrolidin-1-yl)-2-oxoethyl)-3,4-dihydro-1H-pyrido[3,4-b]indol-2(9H)-yl)-3-oxopropanoate], above 10000 nM. With `CC(=O)n1cc(C(=O)C(=O)N2C[C@H](F)C[C@H]2C(=O)NCc2cccc(Cl)c2F)c2ccccc21` [Compound 71, (2S,4R)-1-(2-(1-acetyl-1H-indol-3-yl)-2-oxoacetyl)-N-(3-chloro-2-fluorobenzyl)-4-fluoropyrrolidine-2-carboxamide] the figure was above 10000 nM; with `O=C(O)CCC(=O)N1CCc2c(n(CC(=O)N3C[C@H](F)C[C@H]3C(=O)NCc3cccc(Cl)c3F)c3ccccc23)C1` [Compound 72, 4-(9-(2-((2S,4R)-2-(3-chloro-2-fluorobenzylcarbamoyl)-4-fluoropyrrolidin-1-yl)-2-oxoethyl)-3,4-dihydro-1H-pyrido[3,4-b]indol-2(9H)-yl)-4-oxobutanoic acid], above 10000 nM; with `O=C(NCc1cccc(Cl)c1F)[C@@H]1C[C@@H](F)CN1C(=O)Cn1nc(-c2cn[nH]c2)c2ccncc21` [Compound 73, (2S,4R)-1-(2-(3-(1H-pyrazol-4-yl)-1H-pyrazolo[3,4-c]pyridin-1-yl)acetyl)-N-(3-chloro-2-fluorobenzyl)-4-fluoropyrrolidine-2-carboxamide], below 1000 nM. `C=C(F)c1nn(CC(=O)N2C[C@H](F)C[C@H]2C(=O)NCc2cccc(Cl)c2F)c2cnccc12` [Compound 74, (2S,4R)-N-(3-chloro-2-fluorobenzyl)-4-fluoro-1-(2-(3-(1-fluorovinyl)-1H-pyrazolo[3,4-c]pyridin-1-yl)acetyl)pyrrolidine-2-carboxamide] showed an IC50 below 1000 nM.

As to `O=C(NCc1cccc(Cl)c1F)[C@@H]1C[C@@H](F)CN1C(=O)Cn1nc(-c2cnc[nH]2)c2ccncc21` [Compound 75, (2S,4R)-1-(2-(3-(1H-imidazol-5-yl)-1H-pyrazolo[3,4-c]pyridin-1-yl)acetyl)-N-(3-chloro-2-fluorobenzyl)-4-fluoropyrrolidine-2-carboxamide], the IC50 is below 1000 nM.

The compound `NS(=O)(=O)c1cn(CC(=O)N2C[C@H](F)C[C@H]2C(=O)NCc2cccc(Cl)c2F)c2ccccc12` [Compound 76, (2S,4R)-N-(3-chloro-2-fluorobenzyl)-4-fluoro-1-(2-(3-sulfamoyl-1H-indol-1-yl)acetyl)pyrrolidine-2-carboxamide] returned an IC50 below 1000 nM. The compound `NC(=O)c1nn(CC(=O)N2[C@@H]3C[C@@H]3C[C@H]2C(=O)Nc2cccc(-c3ccccc3Cl)c2F)cc1Br` [Compound 77, (1R,3S,5R)-2-(2-(4-bromo-3-carbamoyl-1H-pyrazol-1-yl)acetyl)-N-(2′-chloro-2-fluorobiphenyl-3-yl)-2-azabicyclo[3.1.0]hexane-3-carboxamide] yielded an IC50 below 1000 nM. Compound `CC(=O)c1cn(CC(=O)N2C[C@H](F)C[C@H]2C(=O)Nc2cccc(-c3ccccc3Cl)c2F)c2c(C#N)cccc12` [Compound 79, (2S,4R)-1-(2-(3-acetyl-7-cyano-1H-indol-1-yl)acetyl)-N-(2′-chloro-2-fluorobiphenyl-3-yl)-4-fluoropyrrolidine-2-carboxamide] displayed a concentration for half-maximal inhibition (IC50) below 1000 nM. As for `NC(=O)c1nn(CC(=O)N2C[C@H](F)C[C@H]2C(=O)Nc2cccc(-c3cc(F)c(F)cc3Cl)c2F)c2ccccc12` [Compound 80, 1-(2-((2S,4R)-2-(2′-chloro-2,4′,5′-trifluorobiphenyl-3-ylcarbamoyl)-4-fluoropyrrolidin-1-yl)-2-oxoethyl)-1H-indazole-3-carboxamide], the IC50 was below 1000 nM.

In turn, `CC(=O)c1cn(CC(=O)N2C[C@H](F)C[C@H]2C(=O)Nc2cccc(Br)n2)c2ccc(C3(N4C(=O)c5ccccc5C4=O)CC3)cc12` [Compound 81, (2S,4R)-1-(2-(3-acetyl-5-(1-(1,3-dioxoisoindolin-2-yl)cyclopropyl)-1H-indol-1-yl)acetyl)-N-(6-bromopyridin-2-yl)-4-fluoropyrrolidine-2-carboxamide] gave a concentration for half-maximal inhibition (IC50) below 1000 nM.
